Reference: patent publication US20190151294A1, “TREATMENT OF ALCOHOLISM AND DEPRESSION AND/OR DYSPHORIC MOOD USING IBUDILAST” (MEDICINOVA, INC., priority 2016, published 2019)

What was measured:
[1] = test system: alcohol-preferring (P) rats; assay: Voluntary ethanol consumption in alcohol-preferring (P) rats; assay type: in vivo, rat; conditions: for dose dependence of effect on ethanol intake (2-way mixed ANOVA): p<0.001
Procedure: To perform the study, adult male P and HAD1 rats were randomly assigned to receive one of the following four doses of ibudilast—0 mg/Kg, 3 mg/Kg, 6 mg/Kg, or 9 mg/Kg with eight rats assigned to each dose. Each dosing group was balanced to average a 2 h/day ethanol (15% v/v) intake. Water was concurrently available to the rats and Mazola corn oil was used as the vehicle.
The study was divided into four test phases. In the maintenance test phase rats in the treatment group were injected ibudilast subcutaneously (2 mL/kg s.c.), using standard solutions that deliver 3 mg/Kg, 6 mg/Kg or 9 mg/Kg of ibudilast, 60 min before each ethanol test session and the same dose of ibudilast was administered subcutaneously to the rats 8 hours later. Rats in the control group, however, are administered 2 mL/Kg Mazola corn oil subcutaneously. This protocol was carried out for 4 consecutive days. Following the maintenance test phase, is a two week no drug recovery phase during which rats are permitted access to ethanol and the amount of ethanol consumed by the rats was measured.
The recovery phase is followed by a two week forced ethanol abstinence phase. Following forced abstinence, the effects of ibudilast on ethanol drinking were examined by re-introducing ethanol to rats for a period of 5 consecutive days (i.e., the Relapse Test phase). Each animal received the same dose of ibudilast during maintenance and relapse test phases.

[2] = test system: C57BL/6J mice; assay: Chronic intermittent ethanol (CIE) exposure mouse model of ethanol dependence; assay type: in vivo
Procedure: Briefly, mice were divided into test (ethanol dependent) and control (non-ethanol dependent) groups. Mice in the former group were exposed to chronic intermittent ethanol (CIE) vapor (16 hr/day×4 days), and then forced to abstain from alcohol for 72 hours. Mice were then permitted access to ethanol for 2 h/day for a 5-day test period. This pattern of weekly CIE exposures followed by 5-day test periods was repeated for 9 cycles. Mice in the control group were treated in the same manner, except these animals were exposed to air rather than ethanol vapors. Mice from both groups were further divided into four sub-groups with animals receiving 0 mg/Kg, 3 mg/Kg, 6 mg/Kg or 12 mg/Kg dose of ibudilast.
In a separate study, adult male C57BL/6J mice were used to evaluate ibudilast as a therapeutic for the treatment of alcohol dependence. Two groups of mice were used for the study. Mice in the first group were trained to drink ethanol using a 2 h/day free-choice (15% v/v ethanol) drinking procedure (ethanol dependent (EtOH) mice), while mice in the second group were provided water and served a control (ethanol nondependent (CTL)) mice. Both the ethanol dependent and ethanol non-dependent groups had equal number of mice (N=37-38/group).
Mice in the alcohol dependent group were then exposed to chronic intermittent ethanol (CIE) vapors for 16 hr/day over four days. After a 72 hours forced abstinence period, the ethanol dependent mice were again permitted access to ethanol for 2 hours each day over a 5 consecutive test days. This pattern of chronic intermittent ethanol vapor exposure for four consecutive days followed by forced abstinence and a five day ethanol access test period was repeated for 9 cycles. Mice in the control (CTL) group were treated in a similar manner except that air was used in the inhalation chambers in place of ethanol vapors.
Both control and ethanol dependent mice received subcutaneous (s.c.) injections of the vehicle at 9 hours and 1 hour prior to the start of daily drinking sessions during Test Cycles 4, 5 and 6 to acclimate the animals to handling and administration of injections.
At the end of test cycle 6, mice in the ethanol dependent group and the control group were separated into four sub-groups with animals receiving one of four doses of ibudilast—0 mg/Kg, 3 mg/Kg, 6 mg/Kg or 12 mg/Kg during Test Cycles 7 and 8. Each sub-group contained 9-10 mice (N=9-10/group). The dose of ibudilast was increased during Test Cycle 9 with ethanol dependent and control mice receiving one of the following four doses of ibudilast—0 mg/Kg, 6 mg/Kg, 12 mg/Kg, or 18 mg/Kg. Thus, mice previously receiving a dose of […] were administered ibudilast at a dose of 18 mg/Kg during Test Cycle 9.

[3] = test system: non-treatment-seeking individuals with AUD; assay: Phase 1b study: cue reactivity assessment (CR); assay type: in vivo, human; conditions: 50 mg BID
Excerpt: The present study also assessed the reactivity of participants to alcohol cues at each dose of medication such that participants served as their own controls. […] The CR assessments followed well-established procedures and participants received standardized instructions about the assessment as they became acclimated to the psychophysiological monitors.
CR assessment sessions began with a 3-minute relaxation period, in which participants were asked to sit quietly and do nothing. Participants then held and smelled a glass of water for 3 minutes as a standard procedure to control for the effects of simple exposure to any potable liquid, followed by a second 3-minute relaxation period. Next, each participant held and smelled a glass of their preferred alcoholic beverage for three minutes. During each trial, the participant was asked to sniff the beverage for 5 consecutive seconds upon hearing a tone sound. Thirteen tone sounds were administered during each 3-minute block of time. […]
Following each 3 minute exposure to alcohol, each participant rated his/her urge to drink alcohol using the 11-point Likert scale (e.g., “none at all” to “extremely strong urge”). Heart rate (beats per minute; BPM) and blood pressure (systolic, diastolic, and mean arterial pressure [MAP]) were monitored continuously using a Dynamap Adult Vital Signs Monitor and values were averaged over each 3-minute trial. […]

For CC(C)C(=O)c1c(C(C)C)nn2ccccc12 [ibudilast, Ibudilast], the “reduction of ethanol intake” value ([1]; 5-day Relapse Test phase) was “about 50%”, the “ethanol drinking relative to controls” value ([1]; Relapse Test phase, 6 mg/Kg and 9 mg/Kg doses, p<0.05) was “significantly reducing ethanol drinking relative to controls” and the “dose dependence of effect on ethanol intake (2-way mixed ANOVA)” value ([1]; Relapse Test phase) was “dose dependent reduction in ethanol intake”. The 24-hour food intake ([1]; especially at the 9 mg/Kg dose, effect diminished over the 5-day test phase) was “transitory reductions”, the “dose dependence of effect on ethanol intake (2-way mixed ANOVA)” value ([1]; maintenance test phase, 0, 3, 6, 9 mg/Kg) was “dose dependent reduction of ethanol intake” and the “reduction of ethanol intake” value ([1]; maintenance test phase, 4 days, s.c. twice daily, vs vehicle) was “approximately 50%”. For the same compound, the “time course of reduced ethanol intake (Dose x Day interaction)” value ([1]; p<0.001, data not shown) was “most robust on the first day”, the “ethanol intake of alcohol dependent mice vs control group counterparts” value ([2]; 6 mg, Test Cycle 9, p<0.05) was “consumed significantly more ethanol” and the “difference in ethanol intake between alcohol dependent and control mice” value ([2]; 12 mg/Kg and 18 mg/Kg, Test Cycle 9) was “no significant difference”. For the same compound, the “reduction of ethanol intake, alcohol dependent vs control mice (Group x Dose interaction)” value ([2]; 12 mg/Kg and 18 mg/Kg, Test Cycle 9, p<0.01) was “more effective at reducing ethanol intake in alcohol dependent mice than control mice”, the ethanol intake ([2]; 12 mg/Kg s.c., alcohol dependent mice, before Test Cycle 8 (FIG. 2)) was “reduced ethanol in alcohol dependent mice” and the “ethanol consumption relative to vehicle” value ([2]; 12 mg/Kg, Test Cycle 8, both alcohol dependent and control mice, p<0.05) was “reduced ethanol consumption to a greater extent”. The concurrent water intake ([2]; associated with decreased ethanol intake) was “significant increases”, the “ethanol intake of test (ethanol dependent) group vs control group” value ([2]; at the higher doses (FIG. 2)) was “below those for mice in the control group” and the “cue-induced AUQ craving” value ([3]; day 6 alcohol cue-exposure) was “did not affect”. The “positive mood during cue reactivity” value ([3]; p=0.07) was “increased positive mood”.
